This passage reports IC50, inhibition in vivo and bioavailability results from ChEMBL document CHEMBL1135152, “Design, synthesis, and SAR of monobenzamidines and aminoisoquinolines as factor Xa inhibitors” (Bioorg Med Chem Lett, 2002).

Some results are limits rather than exact numbers.

The term IC50 denotes the concentration at which inhibition is half-maximal. A high value points to lower potency. One may read the inhibition in vivo as the change of the read-out against control, counted positive when it falls. A higher inhibition in vivo goes with a response far below the control. For orientation: bioavailability means dose-corrected exposure relative to a reference, in per cent.

Data set [1] deals with T1, Coagulation factor X (Homo sapiens, UniProt P00742). Kind of data set: Tested in vitro for the inhibitory activity against Coagulation factor Xa.
T1 sequence (P00742 41-179 limits assumed): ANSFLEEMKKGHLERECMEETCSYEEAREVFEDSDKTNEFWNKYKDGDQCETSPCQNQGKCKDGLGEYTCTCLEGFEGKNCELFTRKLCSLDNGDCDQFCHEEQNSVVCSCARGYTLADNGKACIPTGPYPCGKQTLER
T1 sequence (P00742 235-488 limits assumed): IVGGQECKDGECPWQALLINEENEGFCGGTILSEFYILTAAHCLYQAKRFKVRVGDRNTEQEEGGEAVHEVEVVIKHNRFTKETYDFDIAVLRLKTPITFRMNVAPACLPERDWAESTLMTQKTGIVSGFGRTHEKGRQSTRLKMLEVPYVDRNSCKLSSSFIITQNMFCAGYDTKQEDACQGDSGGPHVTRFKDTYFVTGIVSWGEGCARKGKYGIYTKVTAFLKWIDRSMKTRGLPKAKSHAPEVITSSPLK
The target in data set [2] is Vitamin K-dependent protein C (Homo sapiens, UniProt P04070). Briefly: Tested in vitro for the inhibitory activity against activated protein C (APC).
Sequence of Vitamin K-dependent protein C (P04070 43-197 limits assumed): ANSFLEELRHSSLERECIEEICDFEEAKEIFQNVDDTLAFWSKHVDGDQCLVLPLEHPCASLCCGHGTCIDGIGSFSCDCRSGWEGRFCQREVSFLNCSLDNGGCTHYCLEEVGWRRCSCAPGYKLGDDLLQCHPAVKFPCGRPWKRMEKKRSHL
Sequence of Vitamin K-dependent protein C (P04070 212-461 limits assumed): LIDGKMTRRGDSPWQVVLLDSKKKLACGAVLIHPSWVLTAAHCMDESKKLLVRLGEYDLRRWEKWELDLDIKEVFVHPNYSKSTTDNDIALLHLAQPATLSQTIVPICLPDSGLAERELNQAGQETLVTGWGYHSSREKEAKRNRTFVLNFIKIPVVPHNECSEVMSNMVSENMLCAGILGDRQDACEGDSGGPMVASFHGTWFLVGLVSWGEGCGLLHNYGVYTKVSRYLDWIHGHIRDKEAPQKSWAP
The next data set concerns the target Kallikrein-1 (Homo sapiens, UniProt P06870). Briefly: Tested in vitro for the inhibitory activity against kallikrein.
A further data set deals with Plasminogen (Homo sapiens, UniProt P00747). Kind of data set: Tested in vitro for the inhibitory activity against plasmin.
Sequence of Plasminogen (P00747 97-580 limits assumed): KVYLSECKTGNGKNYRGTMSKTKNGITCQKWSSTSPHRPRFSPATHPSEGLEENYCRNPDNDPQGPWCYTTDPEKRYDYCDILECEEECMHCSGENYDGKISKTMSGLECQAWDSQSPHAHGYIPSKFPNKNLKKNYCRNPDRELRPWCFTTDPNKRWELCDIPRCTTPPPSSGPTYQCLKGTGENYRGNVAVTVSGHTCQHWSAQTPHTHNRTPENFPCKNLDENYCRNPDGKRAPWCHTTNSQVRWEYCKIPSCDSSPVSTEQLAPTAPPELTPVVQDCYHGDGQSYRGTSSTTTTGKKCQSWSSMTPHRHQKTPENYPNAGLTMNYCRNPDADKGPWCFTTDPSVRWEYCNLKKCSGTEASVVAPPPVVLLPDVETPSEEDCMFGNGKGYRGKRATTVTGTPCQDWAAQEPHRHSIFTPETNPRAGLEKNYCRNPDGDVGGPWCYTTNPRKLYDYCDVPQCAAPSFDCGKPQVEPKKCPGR
Sequence of Plasminogen (P00747 581-810 limits assumed): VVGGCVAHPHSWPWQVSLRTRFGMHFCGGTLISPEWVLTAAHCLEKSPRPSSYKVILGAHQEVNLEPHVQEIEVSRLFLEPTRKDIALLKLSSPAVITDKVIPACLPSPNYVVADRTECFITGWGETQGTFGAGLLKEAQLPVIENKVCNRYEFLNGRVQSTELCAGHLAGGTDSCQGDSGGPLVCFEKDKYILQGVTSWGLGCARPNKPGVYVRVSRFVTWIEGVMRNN
The next data set has as its system Oryctolagus cuniculus. Briefly: Tested for inhibition of thrombosis in rabbit deep vein model after intravenous administration at dosage of 2 mg/kg. In kind it is functional.
Data set [3] deals with Tissue-type plasminogen activator (Homo sapiens, UniProt P00750). Briefly: Tested in vitro for the inhibitory activity against Tissue plasminogen activator (tissue plasminogen activator).
Sequence of Tissue-type plasminogen activator (P00750 whole entry): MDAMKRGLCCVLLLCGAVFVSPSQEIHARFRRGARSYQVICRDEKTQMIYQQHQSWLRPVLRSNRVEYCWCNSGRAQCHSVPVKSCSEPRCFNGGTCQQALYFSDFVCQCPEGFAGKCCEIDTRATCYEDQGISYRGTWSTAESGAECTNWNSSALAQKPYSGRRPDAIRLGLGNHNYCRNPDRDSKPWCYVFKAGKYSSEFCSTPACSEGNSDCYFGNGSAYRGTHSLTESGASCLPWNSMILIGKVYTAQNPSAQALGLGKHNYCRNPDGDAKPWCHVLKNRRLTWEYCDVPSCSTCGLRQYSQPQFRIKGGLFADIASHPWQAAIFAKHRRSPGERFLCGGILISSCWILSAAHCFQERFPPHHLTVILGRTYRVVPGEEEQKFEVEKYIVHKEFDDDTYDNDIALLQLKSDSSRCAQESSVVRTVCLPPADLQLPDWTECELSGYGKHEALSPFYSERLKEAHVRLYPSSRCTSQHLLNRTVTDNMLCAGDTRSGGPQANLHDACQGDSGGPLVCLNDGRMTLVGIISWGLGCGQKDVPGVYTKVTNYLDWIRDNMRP
A further data set concerns the target Prothrombin (Homo sapiens, UniProt P00734). Kind of data set: Tested in vitro for the inhibitory activity against thrombin.
In the next data set the target is Serine protease 1 (Homo sapiens, UniProt P07477). Briefly: Tested in vitro for the inhibitory activity against trypsin.
Sequence of Serine protease 1 (P07477 whole entry): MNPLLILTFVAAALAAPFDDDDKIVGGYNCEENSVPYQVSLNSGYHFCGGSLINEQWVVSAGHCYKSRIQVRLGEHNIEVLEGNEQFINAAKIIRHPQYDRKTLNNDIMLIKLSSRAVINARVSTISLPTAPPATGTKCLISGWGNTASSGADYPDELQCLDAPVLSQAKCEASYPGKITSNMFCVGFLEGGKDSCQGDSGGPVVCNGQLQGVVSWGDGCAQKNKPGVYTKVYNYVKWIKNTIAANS
Data set [4] can be described thus: Bioavailability in rat was reported at the dose of 6 mg/kg in 25% PEG-300. In kind it is ADME, organism-based. The settings on record: in vivo.
The nature of data set [5]: Bioavailability in rat. In kind it is ADME, organism-based. As to conditions: in vivo.
For data set [6], the target named is T1, Coagulation factor X. Kind of data set: Tested in vitro for the inhibitory activity against Coagulation factor X.

Sequence of Kallikrein-1 (P06870 whole entry): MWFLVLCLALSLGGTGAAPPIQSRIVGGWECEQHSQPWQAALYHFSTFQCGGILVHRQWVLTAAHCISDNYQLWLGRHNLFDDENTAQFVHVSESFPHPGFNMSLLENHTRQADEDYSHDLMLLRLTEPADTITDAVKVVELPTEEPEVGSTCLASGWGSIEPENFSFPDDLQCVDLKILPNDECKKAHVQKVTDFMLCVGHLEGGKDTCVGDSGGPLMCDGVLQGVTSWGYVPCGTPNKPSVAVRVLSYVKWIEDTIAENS

As for `Nc1nccc2ccc(OCC(c3ccccc3)N3Cc4cc(-c5ccccc5S(N)(=O)=O)ccc4C3=O)cc12` (stereo not given), the midpoint of inhibition against Coagulation factor X [1], the IC50, lay at 623 nM.
For the molecule `CS(=O)(=O)c1ccc(Oc2cccc(C(=N)N)c2)c(NC(=O)c2ccc(-c3ccccc3S(N)(=O)=O)cc2)c1`, on Coagulation factor X [1], the IC50 came out at 1.8 nM.
Still for that read-out and setting: the figure for `COc1ccc(NC(=O)c2ccc(-c3ccccc3S(N)(=O)=O)cc2)c(Oc2cccc(C(=N)N)c2)c1` is 1.6 nM; for `N=C(N)c1cccc(Oc2cc(Br)ccc2NC(=O)c2ccc(-c3ccccc3S(N)(=O)=O)cc2)c1` it is 2.1 nM; for `CS(=O)(=O)Nc1ccc(Oc2cccc(C(=N)N)c2)c(C(=O)Nc2ccc(-c3ccccc3S(N)(=O)=O)cc2)c1` it is 5.4 nM.
Same read-out and setting: in the case of `N=C(N)c1cccc(Oc2ccccc2C(=O)Nc2ccc(-c3ccccc3S(N)(=O)=O)cc2)c1` it was 7.3 nM; in that of `N=C(N)c1cccc(OCCN2Cc3cc(-c4ccccc4S(N)(=O)=O)ccc3C2=O)c1`, 3.6 nM.
`N=C(N)c1cccc(Oc2ccccc2NC(=O)c2ccc(-c3ccccc3S(N)(=O)=O)cc2)c1`: the IC50 in data set [2] was more than 181000 nM; on Kallikrein-1, 250 nM; at Plasminogen, 43000 nM; in [3], 18000 nM; at Prothrombin it was more than 11000 nM; against Serine protease 1 it was 970 nM. The molecule also returned a 50% inhibitory concentration (IC50) against Coagulation factor X [1] of 3.6 nM. The inhibition in vivo at 2 mg/kg in the data set on Oryctolagus cuniculus was 41%.
In data set [4], `Nc1nccc2ccc(OCCN3Cc4cc(-c5ccccc5S(N)(=O)=O)ccc4C3=O)cc12` yielded a bioavailability of less than 5%. This molecule also came in with a 50% inhibitory concentration (IC50) against Coagulation factor X [1] of 22 nM.
`N=C(N)c1cccc(OCCN(Cc2ccoc2)C(=O)c2ccc(-c3ccccc3S(N)(=O)=O)cc2)c1` showed an IC50 against Coagulation factor X [1] of 7.8 nM.
On Coagulation factor X [1], `Nc1nccc2ccc(Oc3ccc(F)cc3NC(=O)c3ccc(-c4ccccc4S(N)(=O)=O)cc3)cc12` registered a half-maximal inhibitory concentration (IC50) of 1320 nM.
Still for that read-out and setting: in the case of `CN(C)c1ccc(Oc2cccc(C(=N)N)c2)c(C(=O)Nc2ccc(-c3ccccc3S(N)(=O)=O)cc2)c1` it was 10 nM; in that of `N=C(N)c1cccc(OCCN(CC(=O)O)C(=O)c2ccc(-c3ccccc3S(N)(=O)=O)cc2)c1`, 34 nM; in that of `COC(=O)c1ccc(Oc2cccc(C(=N)N)c2)c(NC(=O)c2ccc(-c3ccccc3S(N)(=O)=O)cc2)c1`, 2.5 nM.
Same read-out and setting: the figure for `N=C(N)c1cccc(Oc2cc(Br)ccc2C(=O)Nc2ccc(-c3ccccc3S(N)(=O)=O)cc2)c1` is 1.2 nM; for `CN(C)c1ccc(C(=O)Nc2ccc(-c3ccccc3S(N)(=O)=O)cc2)c(Oc2cccc(C(=N)N)c2)c1` it is 16 nM; for `CC(COc1ccc2ccnc(N)c2c1)N1Cc2cc(-c3ccccc3S(N)(=O)=O)ccc2C1=O` (stereo not given) it is 25 nM.
Same read-out and setting: in the case of `CC(=O)Nc1ccc(Oc2cccc(C(=N)N)c2)c(C(=O)Nc2ccc(-c3ccccc3S(N)(=O)=O)cc2)c1` it was 7.7 nM.
Consider `N=C(N)c1cccc(Oc2ccc(Br)cc2C(=O)Nc2ccc(-c3ccccc3S(N)(=O)=O)cc2)c1`, for which the IC50 against Coagulation factor X [1] was found to be 4.4 nM.
For the molecule `N=C(N)c1cccc(Oc2ccc(F)cc2NC(=O)c2ccc(-c3ccccc3S(N)(=O)=O)cc2)c1`, on Coagulation factor X [1], the concentration for half-maximal inhibition (IC50) stood at 4.5 nM.
In the case of `Nc1nccc2ccc(Oc3ccccc3NC(=O)c3ccc(-c4ccccc4S(N)(=O)=O)cc3)cc12`, inhibition on Coagulation factor X [1] was half-maximal at 646 nM (IC50).
For `N=C(N)c1cccc(Oc2cc(Cl)ccc2C(=O)Nc2ccc(-c3ccccc3S(N)(=O)=O)cc2)c1`, on Coagulation factor X [1], the half-inhibitory concentration (IC50) is 1.5 nM.
Same read-out and setting: in the case of `N=C(N)c1cccc(OCC(NC(=O)c2ccc(-c3ccccc3S(N)(=O)=O)cc2)c2ccccc2)c1` (stereo not given) it was 3.4 nM.
Consider `N=C(N)c1cccc(OCCNC(=O)c2ccc(-c3ccccc3S(N)(=O)=O)cc2)c1`, for which the IC50 worked out at 3700 nM in data set [2]; 2100 nM at Kallikrein-1; 13000 nM against Plasminogen; 109000 nM in data set [3]; 321000 nM against Prothrombin; 1200 nM against Serine protease 1. On Coagulation factor X [1], this molecule registered a 50% inhibitory concentration (IC50) of 7.5 nM.
The molecule `CNc1ccc(C(=O)Nc2ccc(-c3ccccc3S(N)(=O)=O)cc2)c(Oc2cccc(C(=N)N)c2)c1` showed a half-maximal inhibitory concentration (IC50) on Coagulation factor X [1] of 12 nM.
The molecule `COC(=O)CN(CCOc1cccc(C(=N)N)c1)C(=O)c1ccc(-c2ccccc2S(N)(=O)=O)cc1` displayed an IC50 against Coagulation factor X [1] of 13 nM.
Same read-out and setting: in the case of `Nc1nccc2ccc(Oc3ccc(C(F)(F)F)cc3NC(=O)c3ccc(-c4ccccc4S(N)(=O)=O)cc3)cc12` it was 1810 nM; in that of `N=C(N)c1cccc(OCCN(Cc2ccccc2)C(=O)c2ccc(-c3ccccc3S(N)(=O)=O)cc2)c1`, 14 nM; in that of `N=C(N)c1cccc(Oc2cc(O)ccc2NC(=O)c2ccc(-c3ccccc3S(N)(=O)=O)cc2)c1`, 3.9 nM.
In turn, `N=C(N)c1cccc(Oc2cc([N+](=O)[O-])ccc2C(=O)Nc2ccc(-c3ccccc3S(N)(=O)=O)cc2)c1` returned a bioavailability in data set [5] of 0.3%. Moreover, the half-inhibitory concentration (IC50) against Coagulation factor X [1] was 4.8 nM.
On to `N=C(N)c1cccc(Oc2ccc(C(F)(F)F)cc2NC(=O)c2ccc(-c3ccccc3S(N)(=O)=O)cc2)c1`, for which, on Coagulation factor X [1], the 50% inhibitory concentration (IC50) is 2.5 nM.
On the same count and under the same terms, in the case of `Nc1nccc2ccc(OCC(Cc3ccccc3)N3Cc4cc(-c5ccccc5S(N)(=O)=O)ccc4C3=O)cc12` (stereo not given) it was 226 nM.
On Coagulation factor X [1], `N=C(N)c1cccc(Oc2ccc(N)cc2C(=O)Nc2ccc(-c3ccccc3S(N)(=O)=O)cc2)c1` had an IC50 of 12 nM.
Molecule `N=C(N)c1cccc(Oc2cc(Cl)ccc2NC(=O)c2ccc(-c3ccccc3S(N)(=O)=O)cc2)c1` displayed a half-inhibitory concentration (IC50) on Coagulation factor X [1] of 1.6 nM.
Consider `N=C(N)c1cccc(Oc2ccc([N+](=O)[O-])cc2C(=O)Nc2ccc(-c3ccccc3S(N)(=O)=O)cc2)c1`, for which, at Coagulation factor X [6], half-maximal inhibition (IC50) was put at 1.9 nM.
With `N=C(N)c1cccc(Oc2ccc(Br)cc2NC(=O)c2ccc(-c3ccccc3S(N)(=O)=O)cc2)c1`, at Coagulation factor X [1], half-maximal inhibition (IC50) required 1.6 nM. This lies in the single-digit nanomolar range.
In turn, `N=C(N)c1cccc(Oc2ccc(Cl)cc2C(=O)Nc2ccc(-c3ccccc3S(N)(=O)=O)cc2)c1` displayed a concentration for half-maximal inhibition (IC50) at Coagulation factor X [1] of 7.7 nM.
On the same count and under the same terms, in the case of `N=C(N)c1cccc(OCC(Cc2ccccc2)NC(=O)c2ccc(-c3ccccc3S(N)(=O)=O)cc2)c1` (stereo not given) it was 5.6 nM; in that of `CC(COc1cccc(C(=N)N)c1)NC(=O)c1ccc(-c2ccccc2S(N)(=O)=O)cc1` (stereo not given), 16 nM; in that of `CC(=O)Nc1ccc(C(=O)Nc2ccc(-c3ccccc3S(N)(=O)=O)cc2)c(Oc2cccc(C(=N)N)c2)c1`, 61 nM.
Consider `N=C(N)c1cccc(Oc2cc(N)ccc2C(=O)Nc2ccc(-c3ccccc3S(N)(=O)=O)cc2)c1`, for which the IC50 against Coagulation factor X [1] was 19 nM.
On the same count and under the same terms, in the case of `Cc1ccc(NC(=O)c2ccc(-c3ccccc3S(N)(=O)=O)cc2)c(Oc2cccc(C(=N)N)c2)c1` it was 9.9 nM; in that of `N=C(N)c1cccc(OCCN(Cc2cccnc2)C(=O)c2ccc(-c3ccccc3S(N)(=O)=O)cc2)c1`, 11 nM.
`N=C(N)c1cccc(Oc2ccc(C(=O)O)cc2NC(=O)c2ccc(-c3ccccc3S(N)(=O)=O)cc2)c1` gave a bioavailability in data set [5] of 5.5%.
`CS(=O)(=O)c1ccc(Oc2ccc3ccnc(N)c3c2)c(NC(=O)c2ccc(-c3ccccc3S(N)(=O)=O)cc2)c1` had a concentration for half-maximal inhibition (IC50) against Coagulation factor X [1] of 6060 nM.
